How the values were obtained:
[1] = test system: CRE-dependent transcription in cultured rat hippocampal neuronal cells; assay: CRE-dependent transcription reporter gene (luciferase) assay in cultured rat hippocampal neuronal cells; format: cell-based; conditions: 8 hours treatment with different concentrations, FIGS. 5 and 6
Description: (§1) FIG. 5 indicates concentration-dependent effects of nobiletin on CRE-dependent transcription in cultured rat hippocampal neuronal cells. Cells were inoculated at a density of 8×10^4 cells/48 well plate followed by holding the plate for 10 to 14 days. […] Following transfection, the cells were treated for 8 hours with different concentrations of […]. Data is shown as the mean±S.E.M. (n=6). Asterisks (*) indicate a level of significance of p<0.05 relative to a control, while double asterisks (**) indicate a level of significance of p<0.001 relative to a control.
as §1, with “FIG. 6 indicates concentration-dependent” for “FIG. 5 indicates concentration-dependent”, “effects of 4-demethylated nobiletin on” for “effects of nobiletin on”
A pregnant SD rat (E18) was sacrificed by cervical dislocation under ether anesthesia. […]
Results obtained from the reporter gene assay were evaluated using one-way ANOVA (Tukey). […]

[2] = test system: ERK phosphorylation in PC12D cells; assay: ERK phosphorylation in PC12D cells by western blotting (p-ERK relative to total ERK); format: cell-based; conditions: 15 minutes treatment, 30 μM nobiletin alone, FIG. 2
Description: Therefore, the effects of royal jelly and the effects of the combined used of royal jelly and nobiletin on ERK activity in PC12D cells, which are considered to be model cells of nerve cells, were examined by western blotting using as an indicator thereof the effects of water-soluble components of “Royal Jelly FD Powder” on ERK phosphorylation.
PC12D cells (Aichi Prefectural County Research Institute) were sub-cultured using Dulbecco's Modified Eagle Medium (DMEM) comprising heat inactivated (56° C., 30 minutes) 5% horse serum (HS: Gibco), 10% fetal calf serum (FCS: CELLect), penicillin (50 units/mL) and streptomycin ([…]). […]
PC12D cells were inoculated into a 35 mm dish at 1×10^6 cells/dish, and after culturing for 24 hours in a CO2 incubator, the cells were treated with drug. […] Moreover, after subjecting to ultrasonic treatment for 5 minutes in ice water, the lysate was centrifuged for 20 minutes at 14,000 rpm followed by recovery of the supernatant and quantification of the amount of protein. […] Bands were detected using the ECL method. […]
PC12D cells were inoculated into a 3.5 cm dish at 1×10^6 cells/dish and cultured overnight followed by treating for 15 minutes with low-serum medium comprising various drugs, and lysing the cells with cell lysis solution to obtain a cell extract. The expression levels of p-ERK and total ERK in the cell extract were then analyzed. […]

Structure (SMILES) | effect on CRE-dependent transcription [1] | effect on ERK phosphorylation [2]
COc1cc(-c2cc(=O)c3c(OC)c(OC)c(OC)c(OC)c3o2)ccc1O [4-demethylated nobiletin, 2-(4-hydroxy-3-methoxyphenyl)-5,6,7,8-tetramethoxychromen-4-one] | concentration-dependently promote CRE-dependent transcription in the same manner as nobiletin | –
COc1ccc(-c2cc(=O)c3c(OC)c(OC)c(OC)c(OC)c3o2)cc1OC [nobiletin, 5,6,7,8,3′,4′-hexamethoxyflavone] | concentration-dependently promote CRE-dependent transcription | only demonstrated weak promoting action of ERK phosphorylation when used alone
